Results on 17 molecules are retold here after PubChem BioAssay (NCI).

The structures appear in SMILES notation. “And” between values parts separate entries of the source, which are not always exact repeats. Equal entries are not always repeated.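 These data come from cells grown in 96-well plates and exposed to compound for 48 hours at five concentrations. Abbreviation: GI50, concentration required for 50% inhibition of growth. TGI: total growth inhibition.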 Where only a bound is given, the exact number is not on record here.

Test in all cases: DTP human tumour cell line panel, 48 h
Test [1] relates to UACC-257 melanoma.
Test [2] relates to OVCAR-4 ovarian.
For test [3], the system named is HS 578T breast.
In test [4] the test system is SN12C renal.
For test [5], the system named is UO-31 renal.
Test [6] concerns U251 CNS.
The subject of test [7] is BT-549 breast.
Test [8] has as its system OVCAR-8 ovarian.
Test [9] concerns SK-MEL-2 melanoma.
For test [10], the system named is PC-3 prostate.

Broadly, the GI50 is the concentration at which growth is held to half of that of the control. As usually defined, the TGI is the concentration giving total growth inhibition. Low values mean greater sensitivity of the cells, high ones lower sensitivity of the cells. For the molecule `Cn1cc(C2=C(c3cn(CCCN)c4ccccc34)C(=O)NC2=O)c2ccccc21`, the GI50 was 4.9 µM in [1]; 4.22 µM in test [2]; 3.91 µM in test [3]; 4.67 µM in test [4]; 5.41 µM in test [5]; 5.01 µM in [6]. For the same molecule, the GI50 is 5.07 µM in test [7], 5.46 µM in test [8], 3.04 µM in test [9] and 7.63 µM in [10]. The TGI in test [1] was 9.05 µM; in test [2], 12.9 µM; in test [3], 16.8 µM; in test [4], 18.6 µM; in [5], more than 18.8 µM; in test [6], 11.5 µM. Further, the concentration for total growth inhibition (TGI) in [7] is 11.5 µM; in test [8], 14.7 µM; in test [9] it was 7.07 µM; in test [10], 24.6 µM.
Take `CCOc1ccc(C(C[N+](=O)[O-])Sc2ccccc2N)cc1` (stereo unspecified): the GI50 in test [1] is 4.6 µM; in test [2] it was 13 µM; in test [3], 3.1 µM; in test [4] it was 3.23 µM; in test [5] it was 2.05 µM; in [6], 2.96 µM. Moreover, the GI50 in test [7] is 2.6 µM; in test [8], 8.97 µM; in [9] it was 16.1 µM; in test [10], 4.02 µM. Also, the TGI is 16.7 µM in [1]; 26 µM in test [2]; 18.3 µM in [3]; 13.4 µM in [4]; 18.2 µM in test [5]; 10.6 µM in [6]. For the same molecule, the total growth inhibition concentration (TGI) was 9.9 µM in [7], 22.6 µM in test [8], 31.2 µM in [9] and 17.3 µM in test [10].
Turning to `CC(=O)Nc1ccc(S(=O)(=O)N=S(C)C)cc1`, the TGI in test [1], in test [2], in test [3], in test [4], in test [5] and in [6] was more than 100 µM each time. The TGI in test [7], in test [8], in test [9] and in [10] was more than 100 µM each time.
With `[N-]=[N+]=NCCCn1c2c(c3ccc([N+](=O)[O-])cc3c1=O)C(=O)c1cc(-c3ccccc3)ccc1-2`, the GI50 in test [1] was more than 100 µM; in test [2], more than 100 µM; in [3] it was 56.5 µM; in [4] it was more than 100 µM; in [5], more than 100 µM; in [6] it was more than 100 µM. Besides, the GI50 in test [7], in test [8], in test [9] and in test [10] was more than 100 µM each time. In addition, the TGI in test [1], in test [2], in test [3], in test [4], in test [5] and in test [6] was more than 100 µM throughout. Moreover, the TGI in [7], in [8], in test [9] and in test [10] was more than 100 µM in each case.
`C=C1C(=O)O[C@H]2[C@H]1CC/C(COC(=O)/C=C\C(=O)NCc1ccc(Cn3c(=O)sn(CCI)c3=O)cc1)=C\CC[C@@]1(C)O[C@@H]21`: the GI50 was 2.07 µM in test [1]; 3.62 µM in test [2]; 14 µM in test [3]; 3.15 µM in [4]; 2.56 µM in test [5]; 7.63 µM in test [6]. Further, the GI50 is 10.7 µM in [7], 2.78 µM in [8], 11.1 µM in test [9] and 7.37 µM in test [10]. The TGI in test [1] was determined as 5.97 µM; in test [2], 17.3 µM; in [3] it was 73.6 µM; in [4], 10.8 µM; in [5] it was 8.47 µM; in test [6] it was 20.2 µM. In addition, the TGI in [7] was 22.6 µM; in test [8] it was 8.76 µM; in test [9], 23.4 µM; in test [10] it was 21.5 µM.
For the molecule `NC(Cc1c[nH]c2ccc([N+](=O)[O-])cc12)C(=O)O` (stereo unspecified), the TGI in [1], in test [2], in test [3], in test [4], in test [5] and in test [6] was more than 100 µM each time. Also, the TGI in test [7], in [8], in test [9] and in [10] was more than 100 µM throughout.
`CCCCCCCCCCNCCSS(=O)(=O)O`: the GI50 in [1] was 7.88 µM; in test [2] it was 9.91 µM; in [3], 1.67 µM; in test [4] it was 1.86 µM; in test [5] it was 3.3 µM; in test [6], 1.99 µM. The GI50 in test [7] was 6.15 µM; in test [8], 2.12 µM; in test [9] it was 2.4 µM; in test [10], 1.98 µM. Also, the TGI in [1] was 22.4 µM; in test [2], 24.4 µM; in test [3] it was 3.6 µM; in test [4] it was 3.6 µM; in test [5], 12.9 µM; in test [6], 4.12 µM. The TGI in test [7] is 21.8 µM; in [8], 4.68 µM; in test [9], 6.63 µM; in [10] it was 4.07 µM.
In the case of `O=C1NC2(CCCCC2)C(=O)N1CCN(CCCl)CCCl`, the GI50 in test [1], in test [2], in test [4], in test [5], in test [6] and in test [8] was more than 25 µM in each case. Also, in test [9], the GI50 is 13.3 µM. The TGI in test [1] is more than 250 µM; in [2] it was more than 250 µM; in test [3], more than 25 µM; in test [4], more than 250 µM; in test [5], more than 250 µM; in test [6], more than 250 µM. In addition, the TGI was more than 25 µM in [7]; > 25 µM and 173 µM in test [8]; 25 µM and > 141 µM in test [9]; more than 25 µM in [10].
On to `COc1cc([N+](=O)[O-])c(S(=O)(=O)O)cc1-n1nc(C(=O)Nc2ccccc2)n[n+]1-c1cc(S(=O)(=O)[O-])c([N+](=O)[O-])cc1OC`, for which the TGI in test [1], in [2], in [3], in test [4], in [5] and in [6] was more than 100 µM in each case. The TGI in test [7], in [8], in [9] and in test [10] was more than 100 µM throughout.
Turning to `COc1ccc2c(O)c(/C=C3\N=Nc4ncccc43)oc2c1C[C@@H]1CCNC[C@H]1F`, the GI50 is 2.82 µM in test [1]; 1.41 µM in test [2]; 1.58 µM in test [3]; 0.458 µM in [4]; 1.61 µM in [5]; 0.299 µM in [6]. The GI50 was 0.277 µM in test [8], 1.93 µM in test [9] and 0.53 µM in test [10]. Moreover, the TGI in [1] was found to be 9.46 µM; in [2] it was 3.45 µM; in test [3], 5.78 µM; in [4] it was 2.22 µM; in test [5], 5.18 µM; in test [6], 1.2 µM. Also, the TGI in [7] was determined as 2.53 µM; in test [8], 1.6 µM; in test [9], 4.04 µM; in test [10], 3.62 µM.
Consider `Oc1ccc2ccccc2c1C=NCc1c(O)ccc2ccccc12`, for which the TGI in test [1], in test [2], in test [3], in [4], in [5] and in test [6] was more than 100 µM each time. For the same molecule, the TGI in test [7], in test [8], in test [9] and in [10] was more than 100 µM throughout.
Turning to `COc1ccc(C2C(C#N)=C(N)Oc3c2sc2c(Br)cccc32)cc1` (stereo unspecified), the GI50 in test [1] was 13.6 µM; in test [2] it was 3.02 µM; in [3], 3.3 µM; in test [4] it was 4 µM; in test [5], 3.21 µM; in test [6], 3.25 µM. For the same molecule, the GI50 in test [7] was 4.76 µM; in test [8], 4.99 µM; in test [9], 2.38 µM; in test [10], 2.86 µM. Further, the TGI in test [1] stood at 32.7 µM; in [2], 21.9 µM; in test [3] it was 36.1 µM; in [4] it was 17 µM; in test [5] it was 17.7 µM; in [6] it was 12.4 µM. Besides, the TGI in test [7] turned out to be 25.3 µM; in [8], 25.3 µM; in test [9] it was 12.7 µM; in test [10] it was 17.3 µM.
Consider `OC1CCCC2CCC[N-]C12.OC1CCCC2CCC[N-]C12.[O]=[V][OH]` (stereo unspecified), for which the GI50 in test [1] is 4.05 µM; in test [2] it was 3.05 µM; in [3], 21.2 µM; in [4], 5.91 µM; in test [5], 2.13 µM; in test [6], 1.87 µM. The GI50 in test [7] is 6.3 µM; in [8], 2.98 µM; in test [9], 9.96 µM; in test [10], 2.59 µM. Also, the TGI in [1] is more than 100 µM; in test [2] it was more than 100 µM; in test [3], more than 100 µM; in test [4], more than 100 µM; in [5] it was 9.29 µM; in test [6], 5.72 µM. The total growth inhibition concentration (TGI) was 52.8 µM in [7], more than 100 µM in [8], 45 µM in test [9] and 8.63 µM in [10].
On to `CC(=O)Nc1cc2cc(NS(=O)(=O)c3ccc(Cl)c(Cl)c3)ccc2oc1=O`, for which the TGI in [1] was more than 100 µM; in [2], more than 100 µM; in [3], 59.7 µM; in test [4], 64.8 µM; in test [5], more than 100 µM; in [6], 45.5 µM. Further, the TGI in test [7] is more than 100 µM; in test [8] it was 31.6 µM; in [9], more than 100 µM; in test [10] it was 51.1 µM.
`COc1cc(-c2nc3ccccc3o2)cc(CN2CCCCC2)c1O`: the GI50 in [1] is 2.06 µM; in [2], 9.48 µM; in test [3], 2.37 µM; in test [4], 1.5 µM; in [5], 1.92 µM; in [6], 1.84 µM. For the same molecule, the GI50 in [7] was 2.45 µM; in test [8], 11.4 µM; in test [9] it was 4.58 µM; in test [10], 0.664 µM. The TGI is 5.51 µM in test [1]; more than 71.8 µM in [2]; 7.44 µM in test [3]; 4.25 µM in test [4]; 21.8 µM in test [5]; 9.54 µM in [6]. The TGI was 9.16 µM in test [7], 94.3 µM in test [8], 15.8 µM in test [9] and more than 100 µM in test [10].
For the molecule `CCCCOc1ccc(/C=N/Nc2cc(C)nc3ccc(Br)cc23)cc1`, the GI50 is 1.66 µM in test [1]; 1.67 µM in test [2]; 1.99 µM in test [3]; 1.74 µM in [4]; 1.48 µM in test [5]; 1.8 µM in test [6]. The GI50 in [7] was 1.77 µM; in [8] it was 1.77 µM; in [9], 1.47 µM; in test [10] it was 1.75 µM. The TGI was found to be 3.18 µM in [1]; 3.06 µM in test [2]; 4.71 µM in test [3]; 3.25 µM in test [4]; 2.82 µM in test [5]; 3.27 µM in test [6]. For the same molecule, the TGI in [7] was determined as 3.42 µM; in test [8] it was 3.53 µM; in [9], 2.86 µM; in [10], 3.37 µM.
With `COS(C)(=O)=O`, the TGI in test [1], in test [2], in test [3], in test [4], in test [5] and in [6] was more than 2 µM throughout. Further, the TGI in [7], in test [8], in test [9] and in test [10] was more than 2 µM each time.
